From a melting point compilation (Tetko et al.; mined from patent text by program, amines drawn as free bases though some values may be those of a salt)

SMILES	melting point [°C]
CC(C)(C)C(CC#N)(SN=O)C(C)(C)C	92 to 93
CCCCc1nc(=O)c2cc(C3=NN(C(c4ccccc4)(c4ccccc4)c4ccccc4)[C@H]4C(=O)N(C)C(=O)[C@@H]34)ccc2[nH]1 (relative stereo)	182
N#Cc1cccc(-c2cc(-c3ccc(C#N)cc3O[N+](=O)[O-])on2)c1	198 to 199
CCCc1nc2c(N)nc3ccc(-c4ccc(CN)cc4)cc3c2s1	225 to 226
NN=CNCC(=O)NC1CCCCC1	232 to 234
N#Cc1c(NCc2ccc(N)cc2)n[nH]c1N	168 to 170
O=C(O)c1ccc(COc2ccc(-c3ccc(-c4c(Cc5ccccc5)oc5ccccc45)cc3)cc2)cc1	208 to 210
N=C(NCc1ccco1)NN=Cc1c(Cl)cccc1Cl	134 to 136
CN1CCC(C)(O)C(C)(C)C1Cc1ccccc1 (stereo unspecified)	95 to 103
CC(=O)NC[C@H]1CN(c2ccc(N3CCC4(CC3)NCCS4)c(F)c2)C(=O)O1	150 to 152
Cc1ccc(S(=O)(=O)O[C@H](C)C(=O)N2C(=O)N(C)C[C@H]2C(=O)OC(C)(C)C)cc1	78 to 80
COc1ccc(C2=C(/C=C/C(=O)Oc3ccc([N+](=O)[O-])cc3)CCc3cc(OC)ccc32)cc1	151 to 152
CN1CN(C2CCCC2)CN(c2nc3c(s2)C(=O)CC(C)(C)C3)C1=O	181 to 183
CC(C)(C)OC(=O)C=C1CN=C(c2ccccc2F)c2cc(Cl)ccc2N1	158 to 160
C#CCN1CCN(CC(=O)N2c3ccccc3C(=O)Nc3cccnc32)CC1	249 to 250
CCNC[C@H]1CCc2cc(F)cc(-c3c(Cl)cccc3Cl)c2O1	> 225
CCc1c(C(C)C)cc(C(C)C)c(CO)c1-c1ccc(F)cc1	106 to 108
CC1C(=O)N(CC(N)=O)C(C)(C)N1C(=O)CN (stereo unspecified)	118
CCc1cccc(C)c1NCc1nccc2c1nc(C)n2C	141 to 142

SMILES	melting point [°C]
CC(C)c1cccc(C(C)C)c1NC(=O)CN1CCN(CCSc2nc3ncccc3o2)CC1	153 to 154
Cc1cc2c(nc1C(O)c1ccccc1)CCCCC2 (stereo unspecified)	130 to 132
O=C(O)c1cc2cc(Cl)ccc2nc1N[C@@H](Cc1ccc(OCc2ccccc2)cc1)C(=O)O	169 to 171
COc1nc(-c2ccc3c(c2)OCO3)c2cc3c(cc2n1)OCO3	216 to 223
C[C@]12CCC(=O)C=C1CC[C@@H]2c1cn(Cc2ccccc2)nn1	122 to 125
O=C1OCCN1c1ccc(OC(F)C(F)(F)F)cc1 (stereo unspecified)	74 to 76
COC1(C)CCc2c(C)c(OC(C)=O)c(C)c(C)c2O1 (stereo unspecified)	71 to 72.5
C[C@@H](NC(=O)c1c[nH]c2ncc(-c3nn(C)c4c(F)c(F)ccc34)nc12)C(=O)N1CC(C#N)C1	240 to 250
CCc1nc(=O)c2ccccc2n1Cc1ccc(-c2ccccc2C#N)cc1	207 to 208
O=C1CCC(N2Cc3c(OCc4cccc(CN5CCOCC5)c4)cccc3C2=O)C(=O)N1 (stereo unspecified)	247 to 249
O=C1OCc2c1oc1cccc(F)c1c2=O	224 to 226
CC(c1ccccn1)C(O)(Cn1cncn1)c1ccc(F)cc1F (stereo unspecified)	146 to 148
O=C1c2ccccc2CN1c1ccccc1CCN1CCN(c2nsc3ccccc23)CC1	208
CC(=O)Oc1ccc(C=Cc2cc(OC(C)=O)cc(OC(C)=O)c2)cc1	112 to 113
COc1cccc(C2(N(C)C)CCC(C(O)Cc3ccccc3)CC2)c1 (stereo unspecified)	72
C=C1CCCN(C(=O)c2ccc(NC(=O)c3ccccc3C)cc2)c2ccccc21	216 to 217
CC(CCc1cc2cccnc2n(-c2cccc([N+](=O)[O-])c2)c1=O)c1ccncc1 (stereo unspecified)	154 to 155
O=C(O)CCC(=O)N1CCCc2cc(S(=O)(=O)N3CCN(c4cccc(Cl)c4)CC3)ccc21	135 to 136

Now from value to compound:

melting point [°C]	SMILES
258 to 259	CC(C)(C)COc1ccc(C2=CC=CN3CCS(=O)(=O)N=C23)cc1
170 to 171	O=C1Nc2cc(-c3ccccc3)ccc2OC1CCO (stereo unspecified)
228 to 230	O=C(O)/C=C/c1ccc(OCc2cccnc2)cc1
176 to 178	NC(=O)COC(=O)NCCC[C@H]1OC[C@H](c2ccc(Cl)c3ccccc32)CO1
86 to 87	CCOC(=O)C(CC)Cc1ccc(N2C(=O)c3ccccc3C2=O)cc1 (stereo unspecified)
203 to 205	CN1C(=O)N(CC(COc2ccc(-c3ccc(S(N)(=O)=O)cc3)cc2)N(O)C=O)C(=O)C1(C)C (stereo unspecified)
105 to 107	O=[N+]([O-])c1ccc(C(O)C(CO)[N+](=O)[O-])cc1 (stereo unspecified)
92 to 93	CCOC(=O)c1cn(Cc2ccccc2)nc1OCc1cccc(OCc2nc(-c3ccco3)oc2C)c1
126 to 136	CC(C)C(=NO)c1ccc(Br)cc1
114 to 115	ClCc1ccc(OCc2cn3c(Cl)cccc3n2)cc1
211 to 213	Cc1cccc(C(=O)Nc2nc(=O)c3ccccc3[nH]2)c1
198 to 200	O=C(CNc1c(C(=O)O)[nH]c2cc(Cl)ccc12)c1ccccc1O
198 to 199	CC(C)(C)OCOc1cc(NC(=O)NC(=O)c2ccc(C(N)=S)cc2)ccc1OCC(=O)OC(C)(C)C
105 to 108	CCOC(=O)C1CC(=O)NN1c1ncc(Cl)cc1Cl (stereo unspecified)
236 to 238	COc1cc(C(=O)NS(=O)(=O)c2ccccc2C)ccc1Cc1c(Cl)n(C)c2cc(Cl)c(CCNC(=O)N(C)C)cc12
168 to 171	CC(C(=O)O)c1ccc(-c2nc3ccccc3o2)c(F)c1 (stereo unspecified)
126 to 128	CCCN(CCC)S(=O)(=O)c1cccc(C(=O)Nc2cccc([N+](=O)[O-])c2)c1

melting point [°C]	SMILES
123 to 126	COCCO[C@@H]1c2ccn3c(Cl)c(C)nc3c2N[C@H](c2ccccc2)[C@H]1O
39	CCOC(=O)COc1ccc(C=O)cc1
128 to 129	COC(=O)Oc1c(OC)cc(OC)c2ccccc12
83 to 88	COc1cc(C(=O)OCCCCBr)ccc1O
151 to 152	COc1ccc(Nc2cc(NCCCO)ncn2)cc1
135 to 136	COC(=O)c1cnc(OCc2ccccn2)nc1NCc1ccc(OC)c(Cl)c1
107 to 108	OC(COc1ccc(Cl)cc1)CSCc1ccc(Cl)cc1 (stereo unspecified)
114 to 116	C=C(C)C(=O)OCCCOc1cc(-n2nc3ccc(OC)cc3n2)c(O)c(C(C)(C)C)c1
143 to 146	CC(=O)Oc1ccc2c(c1)C1C(OC(=O)C(C)(C)C)CC3(C)C(OC(=O)C(C)(C)C)CCC3C1CC2 (stereo unspecified)
146	CCNC(=O)COc1cc2c(c(Cl)c1Cl)C(=O)C(C)(C(C)C)C2 (stereo unspecified)
205 to 207	Cc1c(C#N)ncn1-c1cccc(O)c1
216 to 217	O=C(O)c1cccc(-c2cccc(Oc3cccc(Cl)c3Cl)n2)c1
56 to 67	COc1cccc(C(=O)c2cccc(F)c2)c1
182 to 183	Nc1ccc(NC(=O)CC(=O)c2ccccc2)cc1[N+](=O)[O-]
189 to 190	CC(=O)N1CC(=O)NC(Cc2cccc(NC(=O)OC(C)(C)C)c2)C1=O (stereo unspecified)
120 to 122	COc1ccc(C(=O)Cc2c(Cl)cncc2Cl)c2c1OCC2CC(=O)OCc1ccccc1 (stereo unspecified)
> 250	Cc1ccc(-c2nc3cccnc3n2CC(N)=O)s1
